Data on eleven molecules can be found in US9598387B2 (Southern Research Institute, priority 2012, dated 2017).

Where two headings read alike, the source gives them in different places.

The target in assay [1] is T1, human D3 dopamine receptor (Homo sapiens (Human), UniProt P35462). Description: Radioligand binding (125I-IABN competition), D3. The following applies: for Ki: 125I-IABN competition, HEK cell membranes expressing human D3; for D2/D3 (D3 selectivity ratio, D2 Ki/D3 Ki): calculated D2 Ki/D3 Ki. As for the experimental part: (§1) The affinities of the target compounds were determined using radioligand binding experiments. […] Competition curves were modeled for a single site. Data from competition dose-response curves were analyzed using Tablecurve program (Jandel). IC50 values were converted to equilibrium dissociation constants (Ki values) using the Cheng and Prusoff correction.

Assay [2] concerns the target human D2-long dopamine receptor (Homo sapiens (Human), UniProt P14416). In words: Radioligand binding (125I-IABN competition), D2. The following applies: HEK cell membranes expressing human D2-long. The method, then:
as §1

The target in assay [3] is human D2 receptors (Homo sapiens (Human), UniProt P14416). Description: D2 Mitogenesis Functional Assay (3H-thymidine uptake, CHOp-D2 cells). In kind it is cell-based. The note with it: for Emax at 10 µM: % maximum stimulation vs quinpirole (100%), read-out: D2 Agonist Emax; for IC50: read-out: D2 Antagonist IC50. As for the experimental part:
(§2) These assays are based on ^3H-thymidine uptake by cells that are proliferating.
CHO cells expressing human D2 receptors (CHOp-D2 cells) were maintained in alpha-MEM with 10% FCS, 0.05% pen-strep, and 200 μg/mL of G418. […] The cells were incubated at 37° C. in alpha-MEM with 10% FCS. After 48-72 hours, the cells were rinsed twice with serum-free alpha-MEM and incubated for 24 hours at 37° C. Serial dilutions of test compounds were made by the Biomek robotics system in serum-free alpha-MEM. In the functional assay for agonism, the medium was removed and replaced with 100 μL of test compound in serum-free alpha-MEM. In the antagonist assay, the serial dilution of the putative antagonist test compound was added in 90 μL (1.1× of final concentration) and 300 nM quinpirole (30 nM final) was added in […]. After another 24-hour incubation at 37° C., 0.25 μCi of [^3H]thymidine in alpha-MEM supplemented with 10% FCS was added to each well and the plates were further incubated for 2 hours at 37° C. The cells were trypsinized by addition of 10× trypsin solution (1% trypsin in calcium-magnesium-free phosphate-buffered saline) and the plates were filtered and counted as usual. Quinpirole was run as an internal control and dopamine was included for comparative purposes. Butaclamol was run as the standard antagonist.

Assay [4] deals with D3R (Homo sapiens (Human), UniProt P35462). In words: D3 Mitogenesis Functional Assay (3H-thymidine uptake, CHOp-D3 cells). Type of assay: cell-based. The note with it: for Emax at 10 µM: % maximum stimulation vs quinpirole (100%), read-out: D3 Agonist Emax; for D3 Antagonist Imax: inhibition of quinpirole stimulation of mitogenesis; for IC50: read-out: D3 Antagonist IC50. The method, then: as §2
CHO cells expressing human D3 receptors (CHOp-D3 cells) were maintained in alpha-MEM with 10% fetal bovine serum (FBS, Atlas Biologicals), 0.05% pen-strep, and 200 μg/ml of G418. […] The cells are incubated at 37° C. in alpha-MEM with 10% FBS. After 48-72 hours, the cells are rinsed twice with serum-free alpha-MEM and incubated for 24 hours at 37° C. Serial dilutions of test compounds were made by the Biomek robotics system in serum-free alpha-MEM. In the functional assay for agonism, the medium is removed and replaced with 100 μL of test compound in serum-free alpha-MEM. In the antagonist assay, the serial dilution of the putative antagonist test compound was added in 90 μL (1.1× of final concentration) and 300 nM quinpirole (30 nM final) was added in 10 uL. After another 16-hour incubation at 37° C., 0.25 μCi of [^3H]thymidine in alpha-MEM supplemented with 10% FBS was added to each well and the plates were further incubated for 2 hours at 37° C. The cells were trypsinized by addition of 10× trypsin solution (1% trypsin in calcium-magnesium-free phosphate-buffered saline) and the plates were filtered and counted as usual. Quinpirole was run as an internal control and dopamine was included for comparative purposes. Butaclamol was run as the standard antagonist. Data were analyzed using GraphPAD Prism and agonist potency was expressed as EC50 values or % stimulation and antagonist potency was expressed as IC50 values. In these assays, based on the % maximum stimulation as compared to the standard agonist quinpirole (100%) the compounds were classified into following categories: ≧90% full agonist; 70-90% partial to full agonist; <70% partial agonist; 0-20% potential antagonist.

The target in assay [5] is T1, human D3 dopamine receptor. Description: Whole Cell Adenylyl Cyclase Assay, D3. Type of assay: cell-based. The following applies: inhibition of forskolin (100 μM) stimulated cAMP, normalized to quinpirole; compound conc ≥10× Ki (per compound); mean ± S.E.M. As for the experimental part:
The intrinsic activity of the compounds was evaluated by determining their ability to inhibit forskolin-dependent (100 μM) stimulation of adenylyl cyclase activity using a whole cell assay. A whole cell-cyclic AMP accumulation assay was performed with stably transfected HEK cells expressing human D2 or D3 dopamine receptors. This assay is an adaptation of an earlier published method (Su et al., Cyclic Nucleotide Res. 1976, 2, 257-285). Details regarding this method have been published (Chu, W. et al. Bioorg. Med. Chem. 2005, 13, 77-87; Taylor, M. et al. Synapse 2010, 64, 251-266). Confluent (60-80%) HEK cells transfected with recombinant D2-like dopamine receptors were grown in DMEM/10% fetal calf serum containing geneticin in […] flasks. The endogenous ATP pool is radioactively labeled by preincubating the cells in serum-free DMEM/25 mM Hepes medium containing 2 μCi/mL of [2,8-^3H]-adenine (20-Ci/mmol) in a 5% CO2 incubator at 37° C. for 75 min. The radioactive medium was removed by aspiration. Serum-free DMEM (5.6 mL) containing 25 mM HEPES, pH 7.4, and 0.1 mM of the phosphodiesterase inhibitor isobutylmethylxanthine was added to the flask. A […] aliquot of cells was removed and added to 50 μL of forskolin (100 μM) and 50 μL of test drug or quinpirole in DMEM-HEPES. The cells were incubated for 20 min at 37° C. (vortexing every 5 min). The reaction was terminated by the addition of 0.5 mL of 10% trichloroacetic acid (w/v) containing 1.0 mM unlabeled cyclic AMP as a recovery standard. Both the [^3H]-cyclic AMP and the [^3H]-ATP fractions were collected following separation using columns of Dowex AG-50W-X4 and alumina. The final yield of [^3H]-cyclic AMP is corrected for column recovery of unlabeled cyclic AMP determined spectrophotometrically (OD259). The results are reported as percent conversion of [^3H]-ATP into [^3H]-cyclic AMP. The values for the percent inhibition are reported as the actual percent of inhibition of the ^3H-cAMP accumulation relative to the assay performed in the absence of a test compound, minus basal activity. […] The percent maximum response is the value for the inhibition normalized to the value for the full agonist quinpirole.

Where [6] appears, read: inhibition of quinpirole (30 nM final) stimulation of mitogenesis.

Chain of human D2 receptors (P14416 whole entry): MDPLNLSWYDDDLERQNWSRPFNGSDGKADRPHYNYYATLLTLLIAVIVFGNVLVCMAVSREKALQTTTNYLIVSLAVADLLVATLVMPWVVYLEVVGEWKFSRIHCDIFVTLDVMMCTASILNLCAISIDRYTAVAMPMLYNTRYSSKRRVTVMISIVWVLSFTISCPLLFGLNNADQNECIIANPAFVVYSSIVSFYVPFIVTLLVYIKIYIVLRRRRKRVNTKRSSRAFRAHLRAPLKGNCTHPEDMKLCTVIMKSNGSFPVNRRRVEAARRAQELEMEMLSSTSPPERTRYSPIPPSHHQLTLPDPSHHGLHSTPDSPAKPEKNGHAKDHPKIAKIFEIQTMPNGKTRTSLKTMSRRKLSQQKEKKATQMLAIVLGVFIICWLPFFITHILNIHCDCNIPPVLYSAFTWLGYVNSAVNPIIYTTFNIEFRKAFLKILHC
Chain of human D2-long dopamine receptor (P14416 whole entry): as above
T1 sequence (P35462 whole entry): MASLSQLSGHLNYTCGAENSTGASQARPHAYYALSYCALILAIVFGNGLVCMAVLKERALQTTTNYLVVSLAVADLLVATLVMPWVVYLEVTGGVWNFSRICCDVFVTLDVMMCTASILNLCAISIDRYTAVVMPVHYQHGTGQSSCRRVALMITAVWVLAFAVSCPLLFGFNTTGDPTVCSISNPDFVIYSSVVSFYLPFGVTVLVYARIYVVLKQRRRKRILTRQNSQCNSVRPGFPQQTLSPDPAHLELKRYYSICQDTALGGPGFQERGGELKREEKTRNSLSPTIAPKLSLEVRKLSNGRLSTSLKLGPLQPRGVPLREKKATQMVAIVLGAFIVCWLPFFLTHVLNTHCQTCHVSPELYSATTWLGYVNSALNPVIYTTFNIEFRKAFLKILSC
Chain of D3R (P35462 whole entry): as above

As usually defined, the Ki is the equilibrium dissociation constant of an inhibitor or competing ligand from its target. A lower Ki goes with higher affinity. Usually Emax stands for the size of the effect at its maximum, as opposed to the concentration needed. As usually defined, the IC50 is the midpoint of a concentration-inhibition curve. Take `O=C(NCCCCN1CCN(c2cccc(Cl)c2Cl)CC1)N1CCC(c2ccccc2)CC1` [Compound 47, N-(4-(4-(2,3-Dichlorophenyl)piperazin-1-yl)butyl)-4-phenylpiperidine-1-carboxamide]: the Ki came out at 1.9 ± 0.4 nM in assay [1] and 102 ± 11 nM in assay [2]. Moreover, the “D2/D3 (D3 selectivity ratio, D2 Ki/D3 Ki)” value in assay [1] is on record as 53. In addition, the maximal effect (Emax) at 10 µM in assay [3] (at 10 μM) and in assay [4] was less than 20% throughout. The “D2 Antagonist Imax” value in assay [3] (at 10 μM, inhibition of quinpirole stimulation of mitogenesis) is recorded as 98.5% at 10 μM. Moreover, the results for the IC50 in assay [3] and in assay [4] were 286 ± 27 nM and 40 ± 15 nM, respectively. Further, the “D3 Antagonist Imax” value in assay [4] is on record as 96.8%. Besides, in assay [5], the “D3 Cyclase % Inhibition Normalized” value stood at 78.9 ± 17.1%.

In the case of `CC(C)(C)c1nc(N2CCN(CCCCNC(=O)C3CCC(c4ccccc4)CC3)CC2)cc(C(F)(F)F)n1` (stereo not shown) [Compound 103, N-(4-(4-(2-(tert-Butyl)-6-(trifluoromethyl)pyrimidin-4-yl)piperazin-1-yl)butyl)-4-phenylcyclohexanecarboxamide], the “D3 Cyclase % Inhibition Normalized” value in assay [5] is recorded as 51.6 ± 13.4%.

Consider `CC(C)(C)c1nc(N2CCN(CCCCNC(=O)c3cn4cccnc4n3)CC2)cc(C(F)(F)F)n1` [Compound 114, N-(4-(4-(2-(tert-Butyl)-6-(trifluoromethyl)pyrimidin-4-yl)piperazin-1-yl)butyl)imidazo[1,2-a]pyrimidine-2-carboxamide], for which the inhibitory constant (Ki) in assay [1] stood at 11.8 ± 1.1 nM; in assay [2] it was 436 ± 43.4 nM. For the same molecule, the “D2/D3 (D3 selectivity ratio, D2 Ki/D3 Ki)” value in assay [1] is 37. Besides, the Emax at 10 µM in assay [3] (at 10 μM) was less than 1%; in assay [4] it was 14%. The IC50 in assay [3] (setting [6]) is 205 ± 48 nM; in assay [4] (setting [6]), 51 ± 21 nM.

For `Cc1nc(N2CCN(CCCCNC(=O)N3CCN(c4ccccc4)CC3)CC2)cc(C(C)(C)C)n1` [Compound 6, N-(4-(4-(6-(tert-Butyl)-2-methylpyrimidin-4-yl)piperazin-1-yl)butyl)-4-phenylpiperazine-1-carboxamide], the results for the inhibition constant Ki in assay [1] and in assay [2] were 29.2 ± 5.3 nM and 12900 ± 2510 nM, respectively. In assay [1], the “D2/D3 (D3 selectivity ratio, D2 Ki/D3 Ki)” value was 442. In assay [5], the “D3 Cyclase % Inhibition Normalized” value was found to be 26.4 ± 4.6%.

On to `CC(C)(C)c1nc(N2CCN(CCCCNC(=O)c3cn4nc(Cl)ccc4n3)CC2)cc(C(F)(F)F)n1` [Compound 116, N-(4-(4-(2-(tert-Butyl)-6-(trifluoromethyl)pyrimidin-4-yl)piperazin-1-yl)butyl)-6-chloroimidazo[1,2-b]pyridazine-2-carboxamide], for which, in assay [2], the inhibition constant (Ki) was 655 ± 80.6 nM. The maximal response (Emax) at 10 µM in assay [3] (at 10 μM) and in assay [4] was less than 1% each time. In assay [3] (setting [6]), the half-inhibitory concentration (IC50) stood at 1160 ± 110 nM. Besides, in assay [5], the “D3 Cyclase % Inhibition Normalized” value worked out at 31.5 ± 7.0%.

Regarding `O=C(NCCCCN1CCN(c2ccnc3ccccc23)CC1)c1cn2ccccc2n1` [Compound 117, N-(4-(4-(Quinolin-4-yl)piperazin-1-yl)butyl)imidazo[1,2-a]pyridine-2-carboxamide], in assay [1], the inhibitory constant (Ki) was 20.5 ± 3.5 nM and the “D2/D3 (D3 selectivity ratio, D2 Ki/D3 Ki)” value is given as 28. Moreover, in assay [2], the affinity, expressed as Ki, was 572 nM. Besides, in assay [4], the Emax at 10 µM is less than 20% and the “D3 Antagonist Imax” value is recorded as 97.2%. Moreover, in assay [4] (setting [6]), the IC50 stood at 120 ± 22 nM.

In the case of `CC(C)(C)c1nc(N2CCN(CCCCNC(=O)N3CCN(c4ccccc4)CC3)CC2)c2ccccc2n1` [Compound 13, N-(4-(4-(2-(tert-Butyl)quinazolin-4-yl)piperazin-1-yl)butyl)-4-phenylpiperazine-1-carboxamide], the Ki in assay [1] was 43.1 ± 4.8 nM; in assay [2], 4040 ± 965 nM. The “D2/D3 (D3 selectivity ratio, D2 Ki/D3 Ki)” value in assay [1] was 94. The “D3 Cyclase % Inhibition Normalized” value in assay [5] is on record as 61.9 ± 6.4%.

Consider `CC(C)(C)c1cc(N2CCN(CCCCNC(=O)N3CCN(S(=O)(=O)c4ccccc4)CC3)CC2)nc(C(C)(C)C)n1` [Compound 78, N-(4-(4-(2,6-Di-tert-butylpyrimidin-4-yl)piperazin-1-yl)butyl)-4-(phenylsulfonyl)piperazine-1-carboxamide], for which the results for the Ki in assay [1] and in assay [2] were 29 ± 4.8 nM and 448 ± 75.9 nM, respectively. Also, the “D2/D3 (D3 selectivity ratio, D2 Ki/D3 Ki)” value in assay [1] is listed as 15.

As for `CC(C)(C)c1nc(N2CCN(CCCCNC(=O)N3CCN(c4cc(C(F)(F)F)nc(C(C)(C)C)n4)CC3)CC2)cc(C(F)(F)F)n1` [Compound 62, 4-(2-(tert-Butyl)-6-(trifluoromethyl)pyrimidin-4-yl)-N-(4-(4-(2-(tert-butyl)-6-(trifluoromethyl)pyrimidin-4-yl)piperazin-1-yl)butyl)piperazine-1-carboxamide], in assay [1], the affinity corresponds to a Ki of 106 ± 5.5 nM and the “D2/D3 (D3 selectivity ratio, D2 Ki/D3 Ki)” value is listed as 14. The molecule further displayed a Ki in assay [2] of 1520 ± 344 nM.

Regarding `O=C(NCCCCN1CCN(c2cccc(C(F)(F)F)c2)CC1)N1CCN(c2ccccc2)CC1` [Compound 2, 4-Phenyl-N-(4-(4-(3-(trifluoromethyl)phenyl)piperazin-1-yl)butyl)piperazine-1-carboxamide], in assay [1], the affinity corresponds to a Ki of 14.2 ± 2.9 nM and the “D2/D3 (D3 selectivity ratio, D2 Ki/D3 Ki)” value is recorded as 21. Besides, the Ki in assay [2] was found to be 303 ± 10.4 nM.

For `CC(C)(C)c1nc(N2CCN(CCCCNC(=O)N3CCN(c4ccccc4-c4ccccc4)CC3)CC2)cc(C(F)(F)F)n1` [Compound 43, 4-([1,1′-Biphenyl]-2-yl)-N-(4-(4-(2-(tert-butyl)-6-(trifluoromethyl)pyrimidin-4-yl)piperazin-1-yl)butyl)piperazine-1-carboxamide], in assay [1], the Ki was found to be 15 ± 3.1 nM and the “D2/D3 (D3 selectivity ratio, D2 Ki/D3 Ki)” value was 68. This molecule returned an inhibition constant (Ki) in assay [2] of 1020 ± 75.6 nM.
